SMILES strings stand for the structures.

The source of these data is patent US10376502B2, “Alkylated imino sugars exhibiting glucosidase inhibition and their method of use” (Baruch S. Blumberg Institute, priority 2012, dated 2019).

One test has as its system BVDV. The test can be described thus: BVDV single cycle virus yield reduction assay with plaque titration. Particulars: Bovine viral diarrhea virus isolates and strains; MDBK cells, MOI 0.5, 22 hours post infection; compound 0.16 μM to 100 μM. The test is classed as cell-based, BVDV (NADL strain). The method, then:
Cells and viruses: BVDV free MDBK cells (CCL 22) were obtained from the American Type Culture Collection and propagated in DMEMIF12 essential medium supplemented with penicillin (500 U/ml), streptomycin (500 U/ml), and 10% heat inactivated horse serum (Invitrogen). Cells were maintained in a humidified incubator at 37° C. with 5% C02. BVDV (NADL strain). For infections, virus inoculum was added in complete medium and adsorbed for 1 hour at 37‘C’, the inoculum was then removed, the cells washed once with medium and fresh medium containing compounds added. Virus stocks were prepared by freeze thawing the infected cells and culture supernatant three times followed by centrifugation at 1,000 g for 5 min., Stock titers were determined, and stocks were aliquoted and stored at −80° C. WNV was obtained from a eDNA clone of a human 2002 isolate from Texas; virus obtained from BHK cells electroporated with the in vitro synthesized RNA from this eDNA clone was passaged in Vero cells before use in antiviral assays. Dengue virus (DV) serotype 2 was a New Guinea C virus that had been passaged 28 times in suckling mouse brain, twice in Vero cells, and once in C6/36 mosquito cells.
BVDV antiviral and plaque assays: To evaluate antiviral activity against BVDV, a single cycle virus yield reduction assay was performed in the presence of from 0.16 μM to 100 μM through 5-fold dilution. Specifically, 2×10^5 MDBK cells/well were plated in 24 well plates. Twenty four hours later, the cells were infected with BVDV at multiplicity of infection (MOI) of 0.5 PFU/cell in 100 uL complete media. After adsorption for 1 hour at 37° C., the inoculum was removed, and cells were washed with media before media containing vehicle or from 0.16 μM to 100 μM through 5-fold dilution of test compound was added. At 22 hours post infection, both cells and media were collected and freeze-thawed three times before the virus was tittered. For BVDV virus, titer determination, 10^−2, 10^−3, 10^−4 dilutions of virus were inoculated onto MDBK cells as described previously. After absorption and washing the cells were overlaid with medium containing methylcellulose or soft agar and incubated at 37° C. for 3 days or until plaques were visible. Plaques were counted directly under the microscope or after staining with crystal violet in 70% methanol for 15 minutes.
As to `CC(C)C(=O)N(CCCCCCN1C[C@H](O)[C@@H](O)[C@H](O)[C@H]1CO)C1CCCCC1` [Entry 8], the midpoint of the response, the EC50, lay at 0.45 µM and it took 25 µM to reach the 90% level (EC90).
For `CC(C)(C)C(=O)N(CCCCCCN1C[C@H](O)[C@@H](O)[C@H](O)[C@H]1CO)C1CCCC1` [Entry 12], the 50% effective concentration (EC50) (as a rule, the concentration that produces a half-maximal response) was determined as 0.85 µM and the 90% effect concentration (EC90) (usually the concentration needed for an effect of 90%) came to 32 µM.
For `O=S(=O)(c1ccccc1)N(CCCCCCN1C[C@H](O)[C@@H](O)[C@H](O)[C@H]1CO)C1CCCCC1` [Entry 18], in that order: 0.5 µM and 18 µM.
`CC(=O)N(CCCCCCN1C[C@H](O)[C@@H](O)[C@H](O)[C@H]1CO)c1cc(F)ccc1F` [Entry 4] gave an EC50 of 5 µM.
Molecule `CC(C)(C)C(=O)N(CCCCCCN1C[C@H](O)[C@@H](O)[C@H](O)[C@H]1CO)c1ccc(F)cc1F` [Entry 7] returned an EC50 of 0.25 µM and an EC90 of 45 µM.
In turn, `CC(C)(C)C(=O)N(CCCCCCN1C[C@H](O)[C@@H](O)[C@H](O)[C@H]1CO)C1CC1` [Entry 10] displayed a half-maximal effective concentration (EC50) of 3.75 µM.
On to `CC(C)(C)N[S+]([O-])N(CCCCCCN1C[C@H](O)[C@@H](O)[C@H](O)[C@H]1CO)C1CCCCC1` (some centres unmarked) [Entry 19], for which a half-maximal effect (EC50) was put at 0.3 µM and the EC90 turned out to be 25 µM.
`CC1CCCCC1N(CCCCCCN1C[C@H](O)[C@@H](O)[C@H](O)[C@H]1CO)C(=O)OC(C)(C)C` (some centres unmarked) [Entry 1] returned an EC50 of 0.4 µM and an EC90 of 3.5 µM.
On to `CC(C)(C)C(=O)N(CCCCCCN1[C@H](CO)[C@@H](O)[C@H](O)[C@H]1CO)C1CCCCC1` [Entry 14], for which the EC50 is 21 µM. In other words, the double-digit micromolar range.
On the same count and under the same terms, for `CC(C)(C)C(=O)Nc1ccc(CCCN2C[C@H](O)[C@@H](O)[C@H](O)[C@H]2CO)cc1` [Entry 16] the value was above 100 µM.
Molecule `CC(C)(C)C(=O)N(CCCCCCN1C[C@H](O)[C@@H](O)[C@H](O)[C@H]1CO)C1CCCCC1` [Entry 3] showed an EC50 of 0.2 µM and an EC90 of 13 µM.
On to `CC(C)(C)C(=O)N(CCCCCCN1C[C@H](O)[C@@H](O)[C@H](O)[C@H]1CO)C1CCCCCC1` [Entry 13], for which the response was half-maximal at 0.4 µM (EC50) and the EC90 is 9 µM.
Turning to `CC(C)(C)S(=O)(=O)N(CCCCCCN1C[C@H](O)[C@@H](O)[C@H](O)[C@H]1CO)C1CCCCC1` [Entry 17], the EC50 amounted to 0.31 µM and it took 50 µM to reach the 90% level (EC90).
For `CC(C)(C)C(=O)Nc1cccc(CCCN2C[C@H](O)[C@@H](O)[C@H](O)[C@H]2CO)c1` [Entry 15], the EC50 was 2.4 µM.
Molecule `O=C(c1ccccc1)N(CCCCCCN1C[C@H](O)[C@@H](O)[C@H](O)[C@H]1CO)C1CCCCC1` [Entry 20] showed an EC50 of 0.32 µM and an EC90 of 11 µM.
`CC(C)(C)C(=O)N(CCCCCCN1C[C@H](O)[C@@H](O)[C@H](O)[C@H]1CO)C1CCC1` [Entry 11] had an EC50 of 0.8 µM.
The molecule `CC(=O)N(CCCCCCN1C[C@H](O)[C@@H](O)[C@H](O)[C@H]1CO)c1ccc(F)cc1F` [Entry 5] displayed an EC50 of 6 µM and a 90% effect concentration (EC90) of 67 µM.
For `CC(C)(C)C(=O)N(CCCCCCN1C[C@H](O)[C@@H](O)[C@H](O)[C@H]1CO)c1cc(F)ccc1F` [Entry 6], in that order: 0.4 µM and 18 µM.
Turning to `CC(C)(C)CC(=O)N(CCCCCCN1C[C@H](O)[C@@H](O)[C@H](O)[C@H]1CO)C1CCCCC1` [Entry 9], a half-maximal response (EC50) required 0.18 µM and the 90% effect level (EC90) was put at 4 µM.
`CC1CCCCC1NCCCCCCN1C[C@H](O)[C@@H](O)[C@H](O)[C@H]1CO` (some centres unmarked) [Entry 2] yielded an EC50 of 100 µM.

The subject of the next test is their target viruses.
Assay: not given
Particulars: against their target viruses; cited from earlier work.
For `CCCC(=O)O[C@H]1CN2CC[C@H](O)[C@@H]2[C@@H](O)[C@@H]1O` [Cellgosovir], the “concentrations to achieve EC50 values in tissue culture” value is listed as “near millimolar”.
Consider `CCCCN1C[C@H](O)[C@@H](O)[C@H](O)[C@H]1CO` [NBDNJ, N-butyl-DNJ], for which the “concentrations to achieve EC50 values in tissue culture” value is on record as “near millimolar”.
